Series [1] concerns the target T1, wild-type mouse Pgp (MDR3) (Mus musculus, UniProt P21447). How it is done: (§1) Overexpression of wild-type mouse Pgp (MDR3) was achieved by using genetically engineered strains of Pichia pastoris with a 6X histidine tag. The cells were cultured in glycerol media, and methanol was used to induce the overexpression of Pgp at the Bioexpression and Fermentation Facility (BFF), University of Georgia, Athens, GA, USA. A repeated cycle of freezing using liquid nitrogen, blending, and thawing was used to lyse the Pgp-expressing P. pastoris cells. The protein was purified using affinity chromatography with nickel-nitrilotriacetic acid (Ni-NTA) resin (Thermo Fisher Scientific, Waltham, MA, USA). DDM was used to solubilize the protein, and the solution was concentrated using Amicon Ultra-15 100 kDa cut-off filters (EMD Millipore, Billerica, MA, USA). The concentration of purified protein was measured at 280 nm using a calculated extinction coefficient of 1.28 per mg mL^−1 on a Nanodrop (DeNovix, Wilmington, DE, USA). […] The purified DDM-solubilized Pgp was aliquoted and stored at −80 °C for future analysis.
(§2) Approximately 40 µL of DDM-solubilized Pgp was dialyzed for two hours against HEPES buffer (20 mM HEPES, 100 mM NaCl, 5 mM MgCl2, 2 mM DTT, pH 7.4) to remove any remnants of the detergent, DDM. The dialyzed protein was mixed with 4 mg mL^−1 of the extruded liposomes and incubated on ice for at least one hour to allow Pgp to integrate into the liposomes. To remove any additional detergent and further facilitate Pgp integration into the liposome, the solution was dialyzed for a second time for two hours in HEPES buffer to form proteoliposomes, and the concentration of Pgp reconstituted in liposomes was determined using the Bio-Rad DC Protein assay. Finally, the solution was aliquoted and stored at −80 °C for future use.
Acrylamide, an aqueous collisional quencher, can be used to determine the changes in conformation upon Pgp-drug interaction. The principle of this technique is that as the drug interacts with the protein, the conformation of the accessible tryptophan residues in the protein also changes, resulting in a shift in fluorescence intensity. For this experiment, to measure the fluorescence of Pgp reconstituted in liposomes, in the presence (250 µM) or absence of drug(s), the excitation and emission wavelengths used were 295 nm and 330 nm, respectively. The proteoliposomes were diluted to a final concentration of 1 µM in Chifflet buffer (pH 7.4) containing 2 mM DTT, and it was titrated against an increasing concentration of acrylamide. A concentration of 11 µM N-acetyl-L-tryptophanamide (NATA), an analog of tryptophan, was used as a positive control to determine non-specific quenching. A saturated concentration of AMPPNP (3.2 mM), a non-hydrolysable form of ATP, was used to generate an outward-open conformation of Pgp. All the experiments for acrylamide quenching were performed at 21 °C. To correct the fluorescence intensities for background, dilution, and inner filter effects, […] was used. A Stern–Volmer plot was constructed with F0(corrected)/F(corrected) versus acrylamide concentration. The slope of the curve determined the degree of quenching, and it was related to the Stern–Volmer constant (Ksv) by Equation (4), as follows:(4) Focorrected/Fcorrected=1+KsvQ where F0(corrected)/F(corrected) = Stern–Volmer plot; Ksv = Stern–Volmer constant; and [Q] = acrylamide concentration.

Series [2] deals with T1, wild-type mouse Pgp (MDR3). Kind of series: Pgp-mediated ATPase activity (Chifflet colorimetric Pi assay, proteoliposomes). How it is done:
as §1, with “USA).” for “USA). The concentration of purified protein was measured at 280 nm using a calculated extinction coefficient of 1.28 per mg mL^−1 on a Nanodrop (DeNovix, Wilmington, DE, USA).”
Pgp was reconstituted into liposomes as previously described. Briefly, liposomes comprising 80% (w/v) Avanti Escherichia coli total lipid extract and 20% (w/v) cholesterol were dissolved in chloroform to achieve a final concentration of 10 mg mL^−1, and the volume was adjusted to 10 mL. […] The solution was subjected to ten cycles of freeze–thaw using liquid nitrogen and a water bath (67 °C), resulting in the formation of liposomes with varying sizes, and extruded eleven times in a LIPEX extruder (Northern Lipids, Burnaby, BC, Canada) to produce identical-sized liposomes, using a 400 nm cut-off filter.
as §2
The Chifflet method is a colorimetric method that measures the amount of free inorganic phosphate (Pi) through the formation of ammonium molybdate and Pi complex, which produces a strong absorbance at 850 nm. The absorbance was measured on a 96-well plate using a CLARIOstar microplate reader (BMG Labtech, Ortenberg, Germany). […] The final concentrations of the proteoliposome and ATP were maintained at 50 nM and 3.2 mM, respectively. Orthovanadate was used as a control and run in parallel to the samples. Finally, the kinetic curves for ATPase activity were fit to a modified Michaelis-Menten equation (Equation (1)). Igor 6.2 Pro software (Wavemetrics, Tigard, OR, USA) was used for data analysis.(1) V=VmaxS/Km+S+Vbasal where V = Rate of ATP hydrolysis; Vmax = Maximum velocity of ATP hydrolysis; [S] = Substrate concentration; Km = Michaelis–Menten constant; and Vbasal = basal ATPase activity.

The subject of the next series is Pgp. The settings on record: CLEFF9 cells, cited from earlier work.
Where [3] appears, read: 250 µM drug, 3.2 mM AMPPNP, 21 °C.
Where [4] appears, read: 250 µM drug, 3.2 mM AMPPNP, inferred from Ksv.
[5] abbreviates: 250 µM drug, absence of AMPPNP, 21 °C, apo-Pgp 2.5 ± 0.04.
[6] abbreviates: 250 µM drug, no AMPPNP, inferred from Ksv.

Several values for one entry are separate records, joined by “and”; a condition that tells them apart may be missing. Equal entries are not always repeated. Where two headings read alike, the source gives them in different places.

T1 sequence (P21447 whole entry): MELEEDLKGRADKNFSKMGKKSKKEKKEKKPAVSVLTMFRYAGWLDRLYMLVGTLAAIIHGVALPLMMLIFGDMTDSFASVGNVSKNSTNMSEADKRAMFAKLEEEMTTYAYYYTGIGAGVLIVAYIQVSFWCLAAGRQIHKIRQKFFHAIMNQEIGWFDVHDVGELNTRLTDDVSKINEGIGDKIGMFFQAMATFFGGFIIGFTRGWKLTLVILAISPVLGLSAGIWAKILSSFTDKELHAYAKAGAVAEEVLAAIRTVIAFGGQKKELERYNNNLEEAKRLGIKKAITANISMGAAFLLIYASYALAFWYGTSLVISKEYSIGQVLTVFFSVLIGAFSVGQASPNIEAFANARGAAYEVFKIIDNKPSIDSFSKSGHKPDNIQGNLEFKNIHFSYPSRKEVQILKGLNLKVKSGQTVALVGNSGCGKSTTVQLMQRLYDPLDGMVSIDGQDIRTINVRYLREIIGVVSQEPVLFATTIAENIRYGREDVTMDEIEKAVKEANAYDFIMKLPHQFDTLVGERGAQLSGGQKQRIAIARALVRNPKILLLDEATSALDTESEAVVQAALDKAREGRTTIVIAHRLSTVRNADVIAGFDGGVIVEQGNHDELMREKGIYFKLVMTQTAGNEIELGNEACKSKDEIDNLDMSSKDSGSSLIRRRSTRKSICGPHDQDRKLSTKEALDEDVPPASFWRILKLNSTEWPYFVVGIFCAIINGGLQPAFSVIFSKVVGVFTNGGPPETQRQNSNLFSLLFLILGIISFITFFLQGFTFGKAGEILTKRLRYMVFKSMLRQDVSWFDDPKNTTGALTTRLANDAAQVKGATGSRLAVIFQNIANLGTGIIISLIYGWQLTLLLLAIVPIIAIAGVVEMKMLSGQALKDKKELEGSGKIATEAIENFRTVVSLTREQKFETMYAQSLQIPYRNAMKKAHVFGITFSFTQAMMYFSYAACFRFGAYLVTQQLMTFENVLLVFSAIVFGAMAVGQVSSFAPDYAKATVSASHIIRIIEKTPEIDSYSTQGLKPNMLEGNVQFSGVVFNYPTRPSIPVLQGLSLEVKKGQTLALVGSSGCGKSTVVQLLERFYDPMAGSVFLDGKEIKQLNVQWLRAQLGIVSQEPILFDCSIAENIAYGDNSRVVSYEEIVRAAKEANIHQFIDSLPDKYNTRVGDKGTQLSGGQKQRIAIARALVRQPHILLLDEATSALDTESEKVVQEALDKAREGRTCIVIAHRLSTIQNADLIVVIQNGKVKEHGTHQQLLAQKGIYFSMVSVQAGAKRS

Take `C[C@H]1O[C@@H](O[C@H]2[C@@H](O)C[C@H](O[C@H]3[C@@H](O)C[C@H](O[C@H]4CC[C@@]5(C)[C@H](CC[C@@H]6[C@@H]5C[C@@H](O)[C@]5(C)[C@@H](C7=CC(=O)OC7)CC[C@]65O)C4)O[C@@H]3C)O[C@@H]2C)C[C@H](O)[C@@H]1O` [Digoxin]: in series [1], the “Drug-induced Ksv of Pgp (acrylamide quenching), AMPPNP (+)” value (“Drug-induced Ksv of Pgp … (+)” below) is 1.51 ± 0.02 and 1.51 ± 0.02 M^−1; the “Drug-induced Ksv of Pgp (acrylamide quenching), AMPPNP (-)” value (shortened to “Drug-induced Ksv of Pgp … (-)”) is 2.55 ± 0.06 and 2.55 ± 0.06 M^−1; the “Pgp conformation upon drug binding in the absence of a nucleotide” value (“Pgp conformation upon drug binding” for short) is “no effect”; the “Pgp conformation with drug in the presence of a nucleotide” value (“Pgp conformation with drug” for short) was “outward open”. In addition, in series [2], the “Effect on Pgp's ATPase hydrolytic activity relative to basal” value is given as “induced”; the “Vmax of CG-induced Pgp-mediated ATP hydrolysis” value is 277.53 ± 7.24 nmol min^−1 mg^−1 and 277.53 ± 7.24. For the same compound, the “Effect of erythromycin treatment on Pgp-mediated efflux rate” value in the series with Pgp (in words) is listed as “did not affect”.
For `C[C@]12CC[C@H](O)C[C@H]1CC[C@@H]1[C@@H]2CC[C@]2(C)[C@@H](C3=CC(=O)OC3)CC[C@]12O` [Digitoxigenin, (3β,5β)-3,14-Dihydroxy-card-20(22)-enolide], the “Drug-induced Ksv of Pgp … (+)” value in series [1] (setting [3]) is 1.51 ± 0.02 M⁻¹; in series [1] (250 µM drug, 3.2 mM AMPPNP, 21 °C, listed as digitoxigenin), 1.51 ± 0.02 M⁻¹ and 1.51 ± 0.01 M⁻¹. Further, the “Pgp conformation with drug” value in series [1] (setting [4]) is listed as “outward open”. Besides, in series [1] (setting [5]), the “Drug-induced Ksv of Pgp … (-)” value was 1.91 ± 0.04 M⁻¹. Also, the “Pgp conformation upon drug binding” value in series [1] (setting [6]) is recorded as “intermediate”. Further, the “Effect on Pgp's ATPase hydrolytic activity relative to basal” value in series [2] (in words) is “induced”. The “Vmax of CG-induced Pgp-mediated ATP hydrolysis” value in series [2] (relative to the offset (basal activity), 37 °C, 3.2 mM ATP, 50 nM proteoliposome, modified Michaelis-Menten fit) was 216.02 ± 16.01 nmol/min/mg.
As for `C[C@]12CC[C@H](O)C[C@H]1CC[C@@H]1[C@@H]2C[C@@H](O)[C@]2(C)[C@@H](C3=CC(=O)OC3)CC[C@]12O` [Digoxigenin, 3β,12β,14-Trihydroxy-5β,20(22)-cardenolide], in series [1] (setting [3]), the “Drug-induced Ksv of Pgp … (+)” value stood at 1.70 ± 0.01 M⁻¹. In addition, in series [1] (setting [4]), the “Pgp conformation with drug” value is recorded as “outward open”. Further, the “Drug-induced Ksv of Pgp … (-)” value in series [1] (setting [5]) is 2.26 ± 0.04 M⁻¹. Besides, the “Pgp conformation upon drug binding” value in series [1] (setting [6]) is “intermediate”. Also, the “Effect on Pgp's ATPase hydrolytic activity relative to basal” value in series [2] (in words) is “induced”. Besides, in the series on Pgp, the “Decrease of transport rate on treatment with erythromycin” value is reported as “about 43%”.

Values taken from article PMC12386283, “Elucidating the Complex Structural and Molecular Mechanisms Driving P-Glycoprotein-Mediated Transport of Cardiac Glycosides” (International Journal of Molecular Sciences, 2025).
